Values quoted from earlier work as cited in publication PMC8319603, “Developing C2-Aroyl Indoles as Novel Inhibitors of IDO1 and Understanding Their Mechanism of Inhibition via Mass Spectroscopy, QM/MM Calculations and Molecular Dynamics Simulation” (Frontiers in Chemistry, 2021).
Like-named read-outs stand apart in the source and are kept apart here.

Legend:
HeLa = details: Figure 1; ref Prendergast et al., 2017; cited from earlier work
hIDO1 = details: 2017, cited from earlier work
SKOV3 = tested on: SKOV3; design: method as in Siu et al., 2017; Wen et al., 2019; details: Figure 1; ref Siu et al., 2017; Wen et al., 2019; cited from earlier work

Compound	IC50 (HeLa) [nM]	IC50 (hIDO1; ref Prendergast et al., read-out: IC50 against IDO1) [nM]	IC50 (SKOV3) [nM]	IC50 (hIDO1; Figure 1, ref Siu et al., Wen et al., 2019, read-out: IC50 (IDO1)) [nM]
NS(=O)(=O)NCCNc1nonc1C(=NO)Nc1ccc(F)c(Br)c1 [1b]	1.5	[…]	–	–
C[C@@H](C(=O)Nc1ccc(Cl)cc1)C1CCC(c2ccnc3ccc(F)cc23)CC1 (some centres unmarked) [1e]	–	–	3.4	–
O=C1CC(c2c[nH]c3ccc(F)cc23)C(=O)N1 (centres unmarked) [1d]	–	–	70	[…]
